Measurements as given in PubChem BioAssay (NCI).
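Each compound was tested at five concentrations against cells in 96-well plates for 48 hours. GI50 marks 50% less growth. TGI is the concentration that stops growth completely.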

Key:
Assay in all cases: NCI anticancer screen, dose series, 48 h
SF-268 CNS = tested on: SF-268 CNS
IGROV1 ovarian = tested on: IGROV1 ovarian
CAKI-1 renal = tested on: CAKI-1 renal
SF-295 CNS = tested on: SF-295 CNS
OVCAR-8 ovarian = tested on: OVCAR-8 ovarian
HCC-2998 colon = tested on: HCC-2998 colon
EKVX NSCLC = tested on: EKVX NSCLC
786-0 renal = tested on: 786-0 renal
CCRF-CEM leukemia = tested on: CCRF-CEM leukemia
HL-60(TB) leukemia = tested on: HL-60(TB) leukemia
HCT-15 colon = tested on: HCT-15 colon
PC-3 prostate = tested on: PC-3 prostate
OVCAR-3 ovarian = tested on: OVCAR-3 ovarian
DU-145 prostate = tested on: DU-145 prostate
COLO 205 colon = tested on: COLO 205 colon
KM12 colon = tested on: KM12 colon
SW-620 colon = tested on: SW-620 colon
HOP-62 NSCLC = tested on: HOP-62 NSCLC
K-562 leukemia = tested on: K-562 leukemia
ACHN renal = tested on: ACHN renal
SK-MEL-28 melanoma = tested on: SK-MEL-28 melanoma
SR leukemia = tested on: SR leukemia
T-47D breast = tested on: T-47D breast
BT-549 breast = tested on: BT-549 breast
UO-31 renal = tested on: UO-31 renal
HT29 colon = tested on: HT29 colon
MOLT-4 leukemia = tested on: MOLT-4 leukemia
OVCAR-5 ovarian = tested on: OVCAR-5 ovarian
SNB-19 CNS = tested on: SNB-19 CNS
M14 melanoma = tested on: M14 melanoma
MDA-MB-435 = tested on: MDA-MB-435
NCI-H23 lung = tested on: NCI-H23 lung
A549 NSCLC = tested on: A549 NSCLC
RPMI-8226 leukemia = tested on: RPMI-8226 leukemia
OVCAR-4 ovarian = tested on: OVCAR-4 ovarian
SF-539 CNS = tested on: SF-539 CNS
NCI-H460 lung = tested on: NCI-H460 lung
SN12C renal = tested on: SN12C renal
MCF7 breast = tested on: MCF7 breast
SK-OV-3 ovarian = tested on: SK-OV-3 ovarian
HS 578T breast = tested on: HS 578T breast
MDA-MB-468 breast = tested on: MDA-MB-468 breast
NCI-H522 lung = tested on: NCI-H522 lung
SNB-75 CNS = tested on: SNB-75 CNS
HCT-116 colon = tested on: HCT-116 colon
U251 CNS = tested on: U251 CNS
UACC-62 melanoma = tested on: UACC-62 melanoma
HOP-92 NSCLC = tested on: HOP-92 NSCLC
LOX IMVI melanoma = tested on: LOX IMVI melanoma
NCI-H226 lung = tested on: NCI-H226 lung
TK-10 renal = tested on: TK-10 renal
MALME-3M melanoma = tested on: MALME-3M melanoma
UACC-257 melanoma = tested on: UACC-257 melanoma
A498 renal = tested on: A498 renal
MDA-MB-231 breast = tested on: MDA-MB-231 breast
RXF 393 renal = tested on: RXF 393 renal
SK-MEL-5 melanoma = tested on: SK-MEL-5 melanoma

COc1ccc(N2N=C(c3ccc4c(c3)OCO4)CC2c2cccc(NC(=O)CCNS(=O)(=O)c3ccc(Cl)cc3)c2)cc1 (centres undefined)
GI50 (SF-268 CNS): 11.6 µM | TGI (SF-268 CNS): > 100 µM | GI50 (IGROV1 ovarian): 39.8 µM | TGI (IGROV1 ovarian): > 100 µM | GI50 (CAKI-1 renal): 8.88 µM | TGI (CAKI-1 renal): > 100 µM | GI50 (SF-295 CNS): 5.22 µM | TGI (SF-295 CNS): 72.2 µM | GI50 (OVCAR-8 ovarian): 82.8 µM | TGI (OVCAR-8 ovarian): > 100 µM | GI50 (HCC-2998 colon): 8.75 µM | TGI (HCC-2998 colon): > 100 µM | GI50 (EKVX NSCLC): 4.36 µM | TGI (EKVX NSCLC): > 100 µM | GI50 (786-0 renal): 18.8 µM | TGI (786-0 renal): > 100 µM | GI50 (CCRF-CEM leukemia): 5.4 µM | TGI (CCRF-CEM leukemia): > 100 µM | GI50 (HL-60(TB) leukemia): 25.7 µM | TGI (HL-60(TB) leukemia): > 100 µM | GI50 (HCT-15 colon): 7.25 µM | TGI (HCT-15 colon): > 100 µM | GI50 (PC-3 prostate): 4.61 µM | TGI (PC-3 prostate): > 100 µM | GI50 (OVCAR-3 ovarian): 47.6 µM | TGI (OVCAR-3 ovarian): > 100 µM | GI50 (DU-145 prostate): 13.6 µM | TGI (DU-145 prostate): > 100 µM | GI50 (COLO 205 colon): 25.1 µM | TGI (COLO 205 colon): > 100 µM | GI50 (KM12 colon): 12 µM | TGI (KM12 colon): > 100 µM | GI50 (SW-620 colon): 41.1 µM | TGI (SW-620 colon): > 100 µM | GI50 (HOP-62 NSCLC): 63.4 µM | TGI (HOP-62 NSCLC): > 100 µM | GI50 (K-562 leukemia): 3.97 µM | TGI (K-562 leukemia): > 100 µM | GI50 (ACHN renal): 11.6 µM | TGI (ACHN renal): > 100 µM | GI50 (SK-MEL-28 melanoma): 7.37 µM | TGI (SK-MEL-28 melanoma): > 100 µM | GI50 (SR leukemia): 4.68 µM | TGI (SR leukemia): > 100 µM | GI50 (T-47D breast): 7.96 µM | TGI (T-47D breast): > 100 µM | GI50 (BT-549 breast): 3.03 µM | TGI (BT-549 breast): 20.3 µM | GI50 (UO-31 renal): 15.6 µM | TGI (UO-31 renal): > 100 µM | GI50 (HT29 colon): 7.96 µM | TGI (HT29 colon): > 100 µM | GI50 (MOLT-4 leukemia): 4.71 µM | TGI (MOLT-4 leukemia): > 100 µM | GI50 (OVCAR-5 ovarian): 51.6 µM | TGI (OVCAR-5 ovarian): > 100 µM | GI50 (SNB-19 CNS): 16.4 µM | TGI (SNB-19 CNS): > 100 µM | GI50 (M14 melanoma): 9.12 µM | TGI (M14 melanoma): > 100 µM | GI50 (MDA-MB-435): 14.3 µM | TGI (MDA-MB-435): > 100 µM | GI50 (NCI-H23 lung): 22.6 µM | TGI (NCI-H23 lung): > 100 µM | GI50 (A549 NSCLC): 42.4 µM | TGI (A549 NSCLC): > 100 µM | GI50 (RPMI-8226 leukemia): 6.44 µM | TGI (RPMI-8226 leukemia): > 100 µM | GI50 (OVCAR-4 ovarian): 19.1 µM | TGI (OVCAR-4 ovarian): > 100 µM | GI50 (SF-539 CNS): 17.5 µM | TGI (SF-539 CNS): > 100 µM | GI50 (NCI-H460 lung): 11.3 µM | TGI (NCI-H460 lung): > 100 µM | GI50 (SN12C renal): 14.4 µM | TGI (SN12C renal): > 100 µM | GI50 (MCF7 breast): 4.21 µM | TGI (MCF7 breast): > 100 µM | GI50 (SK-OV-3 ovarian): 54.7 µM | TGI (SK-OV-3 ovarian): > 100 µM | GI50 (HS 578T breast): 10.6 µM | TGI (HS 578T breast): > 100 µM | GI50 (MDA-MB-468 breast): 7.03 µM | TGI (MDA-MB-468 breast): > 100 µM | GI50 (NCI-H522 lung): 2.73 µM | TGI (NCI-H522 lung): 7.92 µM | GI50 (SNB-75 CNS): 9.46 µM | TGI (SNB-75 CNS): > 100 µM | GI50 (HCT-116 colon): 9.05 µM | TGI (HCT-116 colon): > 100 µM | GI50 (U251 CNS): 20.5 µM | TGI (U251 CNS): > 100 µM | GI50 (UACC-62 melanoma): 20.4 µM | TGI (UACC-62 melanoma): > 100 µM | GI50 (HOP-92 NSCLC): 8.13 µM | TGI (HOP-92 NSCLC): 76.8 µM | GI50 (LOX IMVI melanoma): 12.1 µM | TGI (LOX IMVI melanoma): > 100 µM | GI50 (NCI-H226 lung): 18 µM | TGI (NCI-H226 lung): > 100 µM | GI50 (TK-10 renal): 38.6 µM | TGI (TK-10 renal): > 100 µM | GI50 (MALME-3M melanoma): 5.42 µM | TGI (MALME-3M melanoma): > 100 µM | GI50 (UACC-257 melanoma): 77.1 µM | TGI (UACC-257 melanoma): > 100 µM | GI50 (A498 renal): 20.6 µM | TGI (A498 renal): 48.1 µM | GI50 (MDA-MB-231 breast): 8.11 µM | TGI (MDA-MB-231 breast): 96 µM | GI50 (RXF 393 renal): 4.98 µM | TGI (RXF 393 renal): > 100 µM | GI50 (SK-MEL-5 melanoma): 22.8 µM | TGI (SK-MEL-5 melanoma): > 100 µM
